Measurements published in PMC2151583 (The Journal of General Physiology, 2006).
Changes are numbered by the printed parent chain.

How the values were obtained:
Assay in all cases: inside-out patch clamp, Xenopus oocytes
HCN2 [1] = molecular target: T1, HCN2 (Mus musculus, UniProt O88703); format: cell-based
T1 sequence (O88703 1-863): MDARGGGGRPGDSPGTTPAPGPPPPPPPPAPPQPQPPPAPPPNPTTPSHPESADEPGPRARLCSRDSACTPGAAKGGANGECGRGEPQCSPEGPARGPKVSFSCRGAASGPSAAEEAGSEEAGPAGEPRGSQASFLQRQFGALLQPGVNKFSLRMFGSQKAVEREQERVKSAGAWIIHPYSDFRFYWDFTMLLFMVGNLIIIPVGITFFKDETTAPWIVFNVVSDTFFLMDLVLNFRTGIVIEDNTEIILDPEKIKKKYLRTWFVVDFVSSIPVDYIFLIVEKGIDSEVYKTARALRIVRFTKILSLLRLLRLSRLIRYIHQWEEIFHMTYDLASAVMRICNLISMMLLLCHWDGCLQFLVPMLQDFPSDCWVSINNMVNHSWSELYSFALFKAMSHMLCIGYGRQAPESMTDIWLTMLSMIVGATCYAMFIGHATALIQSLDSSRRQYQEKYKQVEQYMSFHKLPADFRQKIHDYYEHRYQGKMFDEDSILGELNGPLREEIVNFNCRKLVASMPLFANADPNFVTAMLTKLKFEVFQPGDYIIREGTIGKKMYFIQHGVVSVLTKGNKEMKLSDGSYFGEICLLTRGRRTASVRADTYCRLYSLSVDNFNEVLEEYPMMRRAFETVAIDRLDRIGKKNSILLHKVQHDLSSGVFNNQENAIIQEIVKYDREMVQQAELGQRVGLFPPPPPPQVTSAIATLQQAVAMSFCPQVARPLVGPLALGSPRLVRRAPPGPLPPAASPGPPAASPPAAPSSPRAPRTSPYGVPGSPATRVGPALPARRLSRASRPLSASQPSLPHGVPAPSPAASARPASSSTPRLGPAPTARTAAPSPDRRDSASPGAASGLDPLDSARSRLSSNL

HCN2/FPN = molecular target: T2, HCN2/FPN (Mus musculus, UniProt O88703, Q450F/E451P/K452N); format: cell-based
T2 sequence (O88703 1-863 Q450F/E451P/K452N): T1 sequence (O88703 1-863) with Q450F, E451P, K452N

HCN2 [2] = molecular target: T1, HCN2; format: biochemical
HCN2 [3] = molecular target: T1, HCN2; format: cell-based; remark: listed apart in the source

Row | Compound | inside-out patch clamp, Xenopus oocytes; shift in V1/2 at 1 μM (HCN2 [1]) | inside-out patch clamp, Xenopus oocytes; shift in V1/2 at 25 μM (HCN2 [3]) [mV] | further results
1 | phosphatidylinositol 4,5-bisphosphate [native PI(4,5)P2] | +31.8 mV | – | –
2 | CCCCCCCC/C=C\CCCCCCCC(=O)SCCNC(=O)CCNC(=O)[C@H](O)C(C)(C)COP(=O)(O)OP(=O)(O)OC[C@H]1O[C@@H](n2cnc3c(N)ncnc32)[C@H](O)[C@@H]1OP(=O)(O)O [oleoyl CoA, Oleoyl CoA] | +16.0 mV | – | –
3 | CCCCCCCC(=O)OC[C@H](COP(=O)(O)O[C@@H]1[C@H](O)[C@H](O)[C@@H](OP(=O)(O)O)[C@H](OP(=O)(O)O)[C@H]1O)OC(=O)CCCCCCC [diC8 PI(4,5)P2, dioctanoyl phosphatidylinositol 4,5-bisphosphate] | – | – | inside-out patch clamp, Xenopus oocytes; shift in V1/2 at 25 μM (HCN2/FPN): +13.9 mV; EC50 (HCN2 [2]): 10.9 µM
4 | CCCCCCCC(=O)OC[C@H](COP(=O)(O)O[C@H]1[C@H](O)[C@@H](O)[C@H](OP(=O)(O)O)[C@@H](OP(=O)(O)O)[C@H]1O)OC(=O)CCCCCCC [diC8 PI(3,4)P2, dioctanoyl phosphatidylinositol 3,4-bisphosphate] | – | 12.3 | –
5 | CCCCCCCC(=O)OC[C@H](COP(=O)(O)O[C@H]1[C@H](O)[C@@H](OP(=O)(O)O)[C@H](OP(=O)(O)O)[C@@H](OP(=O)(O)O)[C@H]1O)OC(=O)CCCCCCC [diC8 PI(3,4,5)P3, dioctanoyl phosphatidylinositol 3,4,5-trisphosphate] | – | 9.3 | –
6 | CCCCCCCC(=O)OC[C@H](COP(=O)(O)O[C@H]1[C@H](O)[C@@H](O)[C@H](OP(=O)(O)O)[C@@H](O)[C@H]1O)OC(=O)CCCCCCC [diC8 PI(4)P, dioctanoyl phosphatidylinositol 4-phosphate] | – | 7.5 | –
